Test results reported in ChEMBL document CHEMBL3608294, “Epoxylathyrol Derivatives: Modulation of ABCB1-Mediated Multidrug Resistance in Human Colon Adenocarcinoma and Mouse T-Lymphoma Cells” (J Nat Prod, 2015).

Tests used:
[1] = molecular target: T1, ATP-dependent translocase ABCB1 (Homo sapiens, UniProt P08183); assay: Inhibition of ABCB1 in multidrug resistant human COLO320 cells assessed as fluorescence activity ratio at 2 uM incubated for 10 mins by flow cytometry based rhodamine-123 accumulation assay (reference value: 0.62)
T1 sequence (P08183 whole entry): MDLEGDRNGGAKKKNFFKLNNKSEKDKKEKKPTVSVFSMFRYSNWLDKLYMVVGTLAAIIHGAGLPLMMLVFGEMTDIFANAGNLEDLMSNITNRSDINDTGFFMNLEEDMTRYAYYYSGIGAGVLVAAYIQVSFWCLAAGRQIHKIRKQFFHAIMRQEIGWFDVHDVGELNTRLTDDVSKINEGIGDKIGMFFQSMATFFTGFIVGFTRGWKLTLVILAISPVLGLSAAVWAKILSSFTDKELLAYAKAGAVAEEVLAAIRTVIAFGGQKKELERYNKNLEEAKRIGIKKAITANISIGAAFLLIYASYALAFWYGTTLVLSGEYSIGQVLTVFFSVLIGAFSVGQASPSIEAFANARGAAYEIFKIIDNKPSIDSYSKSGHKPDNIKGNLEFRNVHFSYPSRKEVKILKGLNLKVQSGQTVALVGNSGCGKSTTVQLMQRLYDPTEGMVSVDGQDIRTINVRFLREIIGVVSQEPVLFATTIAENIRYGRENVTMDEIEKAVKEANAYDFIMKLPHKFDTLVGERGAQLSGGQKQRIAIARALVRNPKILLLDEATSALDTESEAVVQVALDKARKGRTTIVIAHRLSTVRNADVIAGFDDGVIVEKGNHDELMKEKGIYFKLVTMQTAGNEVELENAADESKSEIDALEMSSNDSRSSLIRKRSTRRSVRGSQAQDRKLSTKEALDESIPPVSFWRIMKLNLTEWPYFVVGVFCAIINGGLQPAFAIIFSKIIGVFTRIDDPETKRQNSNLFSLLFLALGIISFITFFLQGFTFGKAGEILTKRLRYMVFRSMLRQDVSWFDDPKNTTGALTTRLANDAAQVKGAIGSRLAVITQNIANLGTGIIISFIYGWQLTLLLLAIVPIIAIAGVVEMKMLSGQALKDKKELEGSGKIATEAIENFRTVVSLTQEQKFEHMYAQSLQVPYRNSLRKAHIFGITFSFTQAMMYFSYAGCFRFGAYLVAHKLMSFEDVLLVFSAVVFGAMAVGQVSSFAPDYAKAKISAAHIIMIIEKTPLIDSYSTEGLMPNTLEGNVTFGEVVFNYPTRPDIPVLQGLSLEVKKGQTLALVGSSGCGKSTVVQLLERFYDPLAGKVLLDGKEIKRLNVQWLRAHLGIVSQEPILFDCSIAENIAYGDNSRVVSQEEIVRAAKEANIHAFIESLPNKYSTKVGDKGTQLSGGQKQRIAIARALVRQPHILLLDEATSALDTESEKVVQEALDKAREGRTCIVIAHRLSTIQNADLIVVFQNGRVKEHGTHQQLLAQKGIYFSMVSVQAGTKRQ

L5178Y [2] = assay: Antiproliferative activity against chemosensitive wild type parental mouse L5178Y cells incubated for 72 hrs by MTT assay; type: functional, cell-based
L5178Y [3] = assay: Cytotoxicity against human ABCB1 expressing mouse L5178Y cells incubated for 24 hrs by MTT assay; type: functional, cell-based
COLO 205 = assay: Cytotoxicity against chemosensitive human COLO205 cells incubated for 24 hrs by MTT assay; type: functional, cell-based; settings: COLO 205, 24 h
[4] = Antiproliferative activity against chemosensitive human COLO205 cells incubated for 72 hrs by MTT assay; type: functional, cell-based; settings: COLO 205, 72 h
[5] = molecular target: T1, ATP-dependent translocase ABCB1; assay: Inhibition of human ABCB1 expressed in mouse L5178Y cells assessed as fluorescence activity ratio at 20 uM incubated for 10 mins by flow cytometry based rhodamine-123 accumulation assay (reference value: 0.78); type: cell-based
[6] = molecular target: T1, ATP-dependent translocase ABCB1; assay: Inhibition of human ABCB1 expressed in mouse L5178Y cells assessed as fluorescence activity ratio at 2 uM incubated for 10 mins by flow cytometry based rhodamine-123 accumulation assay (reference value: 0.78); type: cell-based
L5178Y [7] = assay: Selectivity index, ratio of antiproliferative IC50 for wild type parental mouse L5178Y cells to antiproliferative IC50 for human ABCB1 expressing mouse L5178Y cells; type: functional
L5178Y [8] = assay: Cytotoxicity against chemosensitive wild type parental mouse L5178Y cells incubated for 24 hrs by MTT assay; type: functional, cell-based
[9] = molecular target: T1, ATP-dependent translocase ABCB1; assay: Inhibition of ABCB1 in multidrug resistant human COLO320 cells assessed as fluorescence activity ratio at 20 uM incubated for 10 mins by flow cytometry based rhodamine-123 accumulation assay (reference value: 0.62)
L5178Y [10] = assay: Antiproliferative activity against human ABCB1 expressing mouse L5178Y cells incubated for 72 hrs by MTT assay; type: functional, cell-based
[11] = Antiproliferative activity against multidrug resistant human COLO320 cells incubated for 72 hrs by MTT assay; type: functional; settings: COLO 320, 72 h
[12] = Cytotoxicity against multidrug resistant human COLO320 cells incubated for 24 hrs by MTT assay; type: functional, cell-based; settings: COLO 320, 24 h
[13] = molecular target: T1, ATP-dependent translocase ABCB1; assay: Inhibition of human ABCB1 expressed in mouse L5178Y cells assessed as potentiation of 2 mg/ml doxorubicin-induced cytotoxicty by measuring combination index at 5:1 compound to doxorubicin ratio incubated for 48 hrs by MTT assay; type: cell-based
[14] = Selectivity index, ratio of cytotoxic IC50 for chemosensitive human COLO205 cells to cytotoxic IC50 for multidrug resistant human COLO320 cells; type: functional, COLO 205
[15] = Selectivity index, ratio of antiproliferative IC50 for chemosensitive human COLO205 cells to antiproliferative IC50 for multidrug resistant human COLO320 cells; type: functional, COLO 205
L5178Y [16] = assay: Selectivity index, ratio of cytotoxic IC50 for wild type parental mouse L5178Y cells to cytotoxic IC50 for human ABCB1 expressing mouse L5178Y cells; type: functional
[17] = molecular target: T1, ATP-dependent translocase ABCB1; assay: Inhibition of human ABCB1 expressed in mouse L5178Y cells assessed as fluorescence activity ratio at 0.2 uM incubated for 10 mins by flow cytometry based rhodamine-123 accumulation assay (reference value: 0.78); type: cell-based
[18] = molecular target: T1, ATP-dependent translocase ABCB1; assay: Inhibition of ABCB1 in multidrug resistant human COLO320 cells assessed as fluorescence activity ratio at 0.2 uM incubated for 10 mins by flow cytometry based rhodamine-123 accumulation assay (reference value: 0.62)

| SMILES | Ratio [1] | IC50 (L5178Y [2]) [µM] | IC50 (L5178Y [3]) [µM] | IC50 (COLO 205) [µM] | IC50 [4] [µM] | Ratio [5] | Ratio [6] | Ratio IC50 (L5178Y [7]) | IC50 (L5178Y [8]) [µM] | Ratio [9] | IC50 (L5178Y [10]) [µM] | IC50 [11] [µM] | IC50 [12] [µM] | CI [13] | Ratio IC50 [14] | Ratio IC50 [15] | Ratio IC50 (L5178Y [16]) | Ratio [17] | Ratio [18] |
| --- | --- | --- | --- | --- | --- | --- | --- | --- | --- | --- | --- | --- | --- | --- | --- | --- | --- | --- | --- |
| C/C1=C\[C@@H]2[C@H](CC[C@]3(CO3)[C@H](OC(=O)c3ccc(-c4ccccc4)cc3)[C@H]3[C@@H](OC(=O)c4ccc(-c5ccccc5)cc4)[C@@H](C)C[C@]3(O)C1=O)C2(C)C | 2.7 | 74.3 | > 100 | > 100 | > 100 | 30.97 | 22.82 | <0.74 | > 100 | 2.64 | > 100 | > 100 | > 100 |  |  |  |  |  |  |
| C/C1=C\[C@@H]2[C@H](CC[C@]3(CO3)[C@H](OC(=O)N3CCOCC3)[C@H]3[C@@H](OC(=O)N4CCOCC4)[C@@H](C)C[C@]3(O)C1=O)C2(C)C | 1.09 | > 100 | > 100 | > 100 | > 100 | 1.38 | 1.22 |  | > 100 | 1.42 | > 100 | > 100 | > 100 |  |  |  |  |  |  |
| CC(=O)O[C@@H]1[C@@H]2[C@@H](OC(C)=O)[C@](C)(OC(C)=O)CC[C@H]3[C@@H](/C=C(\C)[C@H](OC(C)=O)[C@@]2(OC(C)=O)C[C@@H]1C)C3(C)C | 2.76 | > 100 | > 100 | 49.1 | > 100 | 51.34 | 11.37 |  | > 100 | 5.98 | > 100 | > 100 | 51.4 | 0.205 | 0.96 |  |  |  |  |
| CCC(=O)OC[C@]1(O)CC[C@H]2[C@@H](/C=C(\C)C(=O)[C@@]3(O)C[C@H](C)[C@H](OC(=O)CC)[C@@H]3[C@H]1O)C2(C)C | 1.1 | > 100 | > 100 | > 100 | > 100 | 2.07 | 1.16 |  | > 100 | 2.25 | > 100 | > 100 | > 100 |  |  |  |  |  |  |
| CO[C@H]1[C@@H]2[C@H](CC[C@]3(CO)O[C@@H]3[C@H]3[C@@H](O)[C@@H](C)C[C@]3(O)C(=O)[C@@H]1C)C2(C)C | 1.1 | > 100 | > 100 | > 100 | > 100 | 18.3 | 1.22 |  | > 100 | 2.26 | > 100 | > 100 | > 100 |  |  |  |  |  |  |
| CCN(CC)C(=O)O[C@@H]1[C@@H]2[C@@H](OC(=O)N(CC)CC)[C@]3(CC[C@H]4[C@@H](/C=C(\C)C(=O)[C@@]2(O)C[C@@H]1C)C4(C)C)CO3 | 1.54 | > 100 | > 100 | > 100 | > 100 | 10.62 | 1.71 |  | > 100 | 3.54 | > 100 | > 100 | > 100 |  |  |  |  |  |  |
| C/C1=C\[C@@H]2[C@H](CC[C@]3(CO3)[C@H](OC(=O)C34CC5CC(CC(C5)C3)C4)[C@H]3[C@@H](OC(=O)C45CC6CC(CC(C6)C4)C5)[C@@H](C)C[C@]3(O)C1=O)C2(C)C | 1.2 | > 50 | > 50 | > 50 | > 50 | 31.69 | 22.36 |  | > 50 | 1.64 | > 50 | 27.6 | > 50 |  |  | >1.81 |  |  |  |
| C/C1=C\[C@@H]2[C@H](CC[C@]3(CO3)[C@H](OC(=O)c3ccc(C(F)(F)F)cc3)[C@H]3[C@@H](OC(=O)c4ccc(C(F)(F)F)cc4)[C@@H](C)C[C@]3(O)C1=O)C2(C)C | 2.52 | > 100 | > 100 | > 100 | > 100 | 38.97 | 38.72 |  | > 100 | 3.39 | > 100 | > 100 | > 100 |  |  |  |  |  |  |
| CCO[C@@H]1[C@@H]2C(=O)C(O)(C[C@H](C)[C@@H]2O)/C(C)=C\[C@@H]2[C@H](CC[C@@]1(O)CO)C2(C)C | 1.5 | > 100 | > 100 | > 100 | > 100 | 38.92 | 5.85 |  | > 100 | 3.18 | > 100 | > 100 | > 100 |  |  |  |  |  |  |
| C/C1=C\[C@@H]2[C@H](CC[C@]3(CO3)[C@H](O)[C@H]3[C@@H](O)[C@@H](C)C[C@]3(O)C1=O)C2(C)C | 1.02 | > 100 | > 100 | > 100 | > 100 | 1.49 | 1.15 |  | > 100 | 1.05 | > 100 | > 100 | > 100 |  |  |  |  |  |  |
| C/C1=C\[C@@H]2[C@H](CC[C@@](C)(O)[C@H](O)[C@H]3[C@@H](OC(=O)c4ccccc4)[C@@H](C)C[C@]3(O)[C@H]1OC(=O)c1ccccc1)C2(C)C | 2.94 | 38.5 | 50.7 | 44.9 | > 100 | 71.12 | 43.35 | <0.39 | 52.4 | 5.78 | > 100 | 30.5 | 51.2 |  | 0.88 | >3.28 | 1.03 | 2.33 | 1.48 |
| COc1ccc(CCN(C)CCCC(C#N)(c2ccc(OC)c(OC)c2)C(C)C)cc1OC (stereo not drawn) |  |  |  |  |  |  |  |  |  | 8.95 |  |  |  |  |  |  |  |  |  |
| C/C1=C\[C@@H]2[C@H](CC[C@]3(CO3)[C@H](OC(=O)c3ccco3)[C@H]3[C@@H](OC(=O)c4ccco4)[C@@H](C)C[C@]3(O)C1=O)C2(C)C | 1.67 | 24.8 | > 50 | > 50 | 27.8 | 42.56 | 6.09 | <0.5 | > 50 | 5.5 | > 50 | 28.4 | > 50 | 0.053 |  | 0.98 |  |  |  |
| CO[C@H]1[C@@H]2[C@H](CC[C@]3(COC(=O)c4ccc(C(F)(F)F)cc4)O[C@@H]3[C@H]3[C@@H](OC(=O)c4ccc(C(F)(F)F)cc4)[C@@H](C)C[C@]3(O)C(=O)[C@@H]1C)C2(C)C | 8.25 | 33.3 | 50.9 |  | 8.2 | 41.81 | 39.3 | 0.78 | 48 | 11.56 | 37.6 | 9.3 |  | 0.054 |  | 0.88 | 0.94 | 9.87 | 2.83 |
| C/C1=C\[C@@H]2[C@H](CC[C@@](C)(O)[C@H](O)[C@H]3[C@@H](O)[C@@H](C)C[C@]3(O)[C@@H]1O)C2(C)C | 1.02 | > 100 | > 100 | > 100 | > 100 | 11.61 | 0.51 |  | > 100 | 3.81 | > 100 | > 100 | > 100 |  |  |  |  |  |  |
| C/C1=C\[C@@H]2[C@H](CC[C@@](C)(O)[C@H](O)[C@H]3[C@@H](O)[C@@H](C)C[C@]3(O)[C@H]1O)C2(C)C | 1 | > 100 | > 100 | > 100 | > 100 | 0.59 | 0.54 |  | > 100 | 1.11 | > 100 | > 100 | > 100 |  |  |  |  |  |  |
